33 compounds from ChEMBL document CHEMBL2406911, “Structure guided design of a series of sphingosine kinase (SphK) inhibitors” (Bioorg Med Chem Lett, 2013) can be followed below.

For data set [1], the target named is T1, Sphingosine kinase 2 (Homo sapiens, UniProt Q9NRA0).
T1 sequence (Q9NRA0 whole entry): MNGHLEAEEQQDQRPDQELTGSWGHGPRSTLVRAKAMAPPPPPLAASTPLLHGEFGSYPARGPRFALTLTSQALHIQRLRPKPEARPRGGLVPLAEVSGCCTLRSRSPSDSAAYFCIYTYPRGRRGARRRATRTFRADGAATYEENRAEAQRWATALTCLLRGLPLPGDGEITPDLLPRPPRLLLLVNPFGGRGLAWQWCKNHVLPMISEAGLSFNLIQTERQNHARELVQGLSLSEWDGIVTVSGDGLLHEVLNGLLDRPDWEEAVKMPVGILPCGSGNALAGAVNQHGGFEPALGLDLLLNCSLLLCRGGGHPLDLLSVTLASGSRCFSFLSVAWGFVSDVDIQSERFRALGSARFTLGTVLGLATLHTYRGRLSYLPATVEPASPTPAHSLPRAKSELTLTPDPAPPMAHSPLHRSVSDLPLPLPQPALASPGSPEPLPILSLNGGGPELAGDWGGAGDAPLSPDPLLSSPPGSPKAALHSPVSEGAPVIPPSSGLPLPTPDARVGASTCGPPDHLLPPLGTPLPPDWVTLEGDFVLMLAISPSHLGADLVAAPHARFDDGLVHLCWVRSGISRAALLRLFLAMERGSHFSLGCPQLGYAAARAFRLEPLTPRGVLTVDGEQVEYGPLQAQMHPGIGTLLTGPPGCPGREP
Description: Inhibition of purified human SphK2 assessed as inhibition of formation of [33P]-S1P after 50 mins by scintillation counting

The target in data set [2] is T2, Sphingosine kinase 1 (Homo sapiens, UniProt Q9NYA1).
T2 sequence (Q9NYA1 whole entry): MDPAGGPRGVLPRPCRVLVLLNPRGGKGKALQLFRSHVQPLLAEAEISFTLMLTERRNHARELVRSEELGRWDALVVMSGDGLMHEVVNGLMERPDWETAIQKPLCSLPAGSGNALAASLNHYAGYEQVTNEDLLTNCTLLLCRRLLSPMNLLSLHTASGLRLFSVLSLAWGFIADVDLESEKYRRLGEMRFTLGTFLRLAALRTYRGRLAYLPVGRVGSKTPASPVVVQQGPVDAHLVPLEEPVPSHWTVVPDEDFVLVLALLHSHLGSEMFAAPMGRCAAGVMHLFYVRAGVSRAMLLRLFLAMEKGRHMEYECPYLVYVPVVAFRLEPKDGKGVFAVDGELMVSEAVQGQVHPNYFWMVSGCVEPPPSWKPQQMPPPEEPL
Description: Inhibition of purified human SphK1 assessed as inhibition of formation of [33P]-S1P after 50 mins by scintillation counting
Data set [3] deals with Sphingosine kinase 1 (Mus musculus, UniProt Q8CI15). As to the kind of experiment: Inhibition of mouse SphK1.
Chain of Sphingosine kinase 1 (Mus musculus, UniProt Q8CI15) (Q8CI15 whole entry): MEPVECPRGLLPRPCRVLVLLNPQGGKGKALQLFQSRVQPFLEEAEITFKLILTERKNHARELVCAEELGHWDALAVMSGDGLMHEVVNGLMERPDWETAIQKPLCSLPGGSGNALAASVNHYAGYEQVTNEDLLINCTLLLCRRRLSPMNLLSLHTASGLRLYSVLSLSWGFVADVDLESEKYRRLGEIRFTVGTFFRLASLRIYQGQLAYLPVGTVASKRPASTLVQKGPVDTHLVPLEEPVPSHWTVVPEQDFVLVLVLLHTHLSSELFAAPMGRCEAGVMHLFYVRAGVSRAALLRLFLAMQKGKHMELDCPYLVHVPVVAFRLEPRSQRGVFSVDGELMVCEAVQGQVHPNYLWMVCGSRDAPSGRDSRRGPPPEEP
Data set [4] in a line: Oral bioavailability in mouse at 5 mg/kg. It is filed as ADME, organism-based. Conditions: in vivo.
Data set [5] can be described thus: Mean residence time in mouse at 5 mg/kg, po. It is filed as ADME, organism-based. Set-up: dose 5 mg/kg, route oral. Conditions: in vivo.
Data set [6] in a line: Clearance in mouse at 5 mg/kg, po. It is filed as ADME, organism-based. Also noted: dose 5 mg/kg, route oral. Conditions: in vivo.
Data set [7] in a line: Fraction unbound in human plasma by ultra-centrifugation method. Type of data set: ADME, cell-free.
Data set [8] can be described thus: Fraction unbound in rat plasma by ultra-centrifugation method. It is filed as ADME, cell-free.
A short description of data set [9]: Volume of distribution at steady state in rat at 0.5 mg/kg, iv. Type of data set: ADME, organism-based. Set-up: dose 0.5 mg/kg, route intravenous. Conditions: in vivo, read-out: Vdss.
A short description of data set [10]: Mean residence time in rat at 0.5 mg/kg, iv. It is filed as ADME, organism-based. Set-up: dose 0.5 mg/kg, route intravenous. The conditions noted are these: in vivo.
Data set [11] is described as follows: Clearance in rat at 0.5 mg/kg, iv. It is filed as ADME, organism-based. Also noted: dose 0.5 mg/kg, route intravenous. Conditions: in vivo.
In data set [12] the target is T2, Sphingosine kinase 1. The source holds these as a separate data set.
Description: Inhibition of SphK1 in human WM266-4 cells assessed as inhibition of formation of [17C]-S1P formation after 20 mins by LC-MS analysis
In data set [13] the target is T3, Sphingosine kinase 2 (Mus musculus, UniProt Q9JIA7).
T3 sequence (Q9JIA7 whole entry): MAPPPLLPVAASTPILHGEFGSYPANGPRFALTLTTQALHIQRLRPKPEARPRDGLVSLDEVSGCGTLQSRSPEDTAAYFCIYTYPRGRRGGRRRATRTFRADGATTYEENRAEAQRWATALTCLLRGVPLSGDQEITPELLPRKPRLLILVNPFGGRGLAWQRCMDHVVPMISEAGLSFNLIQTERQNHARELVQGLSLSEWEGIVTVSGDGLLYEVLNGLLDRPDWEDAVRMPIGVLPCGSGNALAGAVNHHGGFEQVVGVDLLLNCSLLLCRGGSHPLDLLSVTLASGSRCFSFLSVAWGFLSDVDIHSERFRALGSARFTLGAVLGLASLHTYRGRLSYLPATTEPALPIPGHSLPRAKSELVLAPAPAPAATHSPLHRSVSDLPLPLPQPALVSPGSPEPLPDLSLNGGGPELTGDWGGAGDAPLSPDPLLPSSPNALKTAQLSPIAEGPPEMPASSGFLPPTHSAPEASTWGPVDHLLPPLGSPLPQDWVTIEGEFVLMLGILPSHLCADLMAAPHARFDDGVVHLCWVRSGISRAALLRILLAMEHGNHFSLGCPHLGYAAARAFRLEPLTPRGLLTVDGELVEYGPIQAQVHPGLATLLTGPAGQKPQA
Kind of data set: Inhibition of mouse SphK2.

pEC50, pIC50, pKi: −log10 of the molar value.

A word on the pIC50: it is −log10 of the IC50, conventionally taken in molar units. Read a low pIC50 as a high IC50. Consider `OCCC1CCCCN1CCc1ccc(Nc2nc(-c3ccc4ccccc4c3)cs2)cc1` (configuration not stated), for which the pIC50 on Sphingosine kinase 2 [1] and at Sphingosine kinase 1 [2] was less than 5.00 each time.
In the case of `OC[C@H]1CCCCN1CCc1ccc(Nc2nc(-c3ccc4ccccc4c3)cs2)cc1`, the pIC50 against Sphingosine kinase 1 [2] was 7.10.
On Sphingosine kinase 2 [1], `OCC1CCN1CCc1ccc(Nc2nc(-c3ccc4ccccc4c3)cs2)cc1` (configuration not stated) had a pIC50 of 5.60.
As usually defined, the bioavailability is dose-corrected exposure relative to a reference, in per cent. By MRT is commonly meant the average time that molecules of a dose stay in the body. One may read the CL/F as clearance divided by bioavailability, as obtained after extravascular dosing. As a reminder, the fraction unbound is the share of the substance not bound to proteins or other matrix. Lower therefore signals extensive binding. The clearance is the volume of plasma or blood freed of the substance per unit of time. Lower therefore signals inefficient removal. Compound `OC[C@H]1C[C@@H](O)CCN1CCc1ccc(Nc2nc(-c3ccc(C(F)(F)F)cc3)cs2)cc1` showed a pIC50 against Sphingosine kinase 1 [3] of 7.15. Moreover, in [4], the bioavailability is 32%. Besides, the MRT amounted to 13 h in [5] and 12 h in [10]. Further, the CL/F in data set [6] was 11.7 mL/min/kg. Moreover, the fraction unbound was 0.04 in [7] and 0.03 in [8]. Also, the Vd in data set [9] was found to be 17 L/kg. Further, the clearance in data set [11] was 23.3 mL/min/kg.
As to `COC[C@H]1CCCN1CCc1ccc(Nc2nc(-c3ccc4ccccc4c3)cs2)cc1`, the pIC50 against Sphingosine kinase 2 [1] is 5.24.
As to `N#Cc1ccc(-c2csc(Nc3ccc(CCN4CCCC[C@@H]4CO)cc3)n2)cc1`, the pIC50 against Sphingosine kinase 1 [2] was less than 5.00.
For the compound `OC[C@H]1C[C@@H](O)CN1CCCc1ccc(Nc2nc(-c3ccc(Cl)c(Cl)c3)cs2)cc1`, the Vd in data set [9] is greater than 100 L/kg. This compound also gave a clearance in [11] greater than 233 mL/min/kg. Besides, the pIC50 is 6.57 at Sphingosine kinase 2 [1] and 7.52 at Sphingosine kinase 1 [2].
As usually defined, the pKi is the Ki on a negative log10 scale, so that one unit is a factor of ten. A lower pKi goes with a large Ki. Consider `N=C(N)[C@@H]1CCCN1C(=O)c1ccc(-c2nc(-c3cccc(CCC4CCCCC4)c3)co2)cc1`, for which the pKi at Sphingosine kinase 2 [1] is 5.38; on Sphingosine kinase 1 [2], 7.30.
The pEC50 is −log10 of the EC50, conventionally taken in molar units. `OC[C@H]1C[C@@H](O)CCN1CCc1ccc(Nc2nc(-c3ccc(Cl)cc3)cs2)cc1` showed a negative-log EC50 (pEC50) on Sphingosine kinase 1 [12] of 6.89. The pIC50 at Sphingosine kinase 1 [2] is 8.10.
Regarding `OC[C@H]1C[C@@H](O)CN1CCc1ccc(Nc2nc(-c3ccc(Cl)c(Cl)c3)cs2)cc1`, in [9], the Vd was greater than 100 L/kg. Also, the clearance in data set [11] was greater than 233 mL/min/kg. At Sphingosine kinase 2 [1], the pIC50 is 7.05.
On Sphingosine kinase 2 [1], `CN1CCN(CCc2ccc(Nc3nc(-c4ccc5ccccc5c4)cs3)cc2)C(CO)C1` (configuration not stated) had a pIC50 of 5.77.
`CCCCc1ccc(/C=C/[C@H](O)[C@@H](CO)NC)cc1`: the values for the pKi on Sphingosine kinase 2 [1] and at Sphingosine kinase 1 [2] were less than 4.00 and 5.00, respectively.
On to `OCC1CCCCN1CCc1ccc(Nc2nc(-c3ccc4ccccc4c3)cs2)cc1` (configuration not stated), for which the pIC50 at Sphingosine kinase 1 [2] is 6.85.
Consider `OC[C@H]1C[C@@H](O)CCN1CCc1ccc(Nc2nc(-c3cccc(C(F)(F)F)c3F)cs2)cc1`, for which, at Sphingosine kinase 1 [12], the pEC50 was 6.60. Besides, the negative-log IC50 (pIC50) on Sphingosine kinase 1 [2] is 8.30.
Take `OC[C@H]1C[C@H](O)CN1CCCc1ccc(Nc2nc(-c3ccc(Cl)c(Cl)c3)cs2)cc1`: the Vd in data set [9] is greater than 100 L/kg. The clearance in data set [11] was greater than 233 mL/min/kg. Also, the pIC50 against Sphingosine kinase 2 [1] is 7.05; on Sphingosine kinase 1 [2], 7.52.
Regarding `CCCCCCCCCCCCc1ccc(C(=O)NC2(C(=N)N)CC2)cc1`, the negative logarithm of the Ki (pKi) on Sphingosine kinase 2 [1] is 6.30; on Sphingosine kinase 1 [2] it was 6.70.
As for `OC[C@H]1C[C@@H](O)CCN1CCCc1ccc(Nc2nc(-c3ccc(Cl)c(Cl)c3)cs2)cc1`, the negative logarithm of the IC50 (pIC50) on Sphingosine kinase 2 [1] was less than 5.00; at Sphingosine kinase 1 [2] it was 5.60.
In the case of `OC[C@H]1C[C@@H](O)CCN1CCc1ccc(Nc2nc(-c3ccc(Cl)cc3Cl)cs2)cc1`, the figures for the pIC50 at Sphingosine kinase 2 [13] and against Sphingosine kinase 1 [3] were less than 5.00 and 7.70, respectively. Further, the values for the fraction unbound in data set [7] and in [8] were 0.02 and 0.01, respectively. Further, in [9], the Vd was 18 L/kg. For the same compound, the mean residence time (MRT) in [10] is 14 h. In [11], this compound gave a clearance of 21.7 mL/min/kg.
The compound `OC[C@H]1CCCCN1CCc1ccc(Nc2nc(-c3cccc(Cl)c3)cs2)cc1` showed a pIC50 at Sphingosine kinase 1 [2] of 6.57.
In the case of `O=S1(=O)CCN(CCc2ccc(Nc3nc(-c4ccc(Cl)c(Cl)c4)cs3)cc2)C(CO)C1` (configuration not stated), on Sphingosine kinase 2 [1], the pIC50 is 5.52.
The compound `OC[C@H]1C[C@@H](O)CCN1CCc1ccc(Nc2nc(C3CCCC3)cs2)cc1` gave a pEC50 at Sphingosine kinase 1 [12] of 6.07. The figures for the pIC50 against Sphingosine kinase 2 [1] and against Sphingosine kinase 1 [2] were less than 5.30 and 6.89, respectively.
As for `CC(C)(C)c1csc(Nc2ccc(CCN3CC[C@H](O)C[C@@H]3CO)cc2)n1`, the pIC50 against Sphingosine kinase 2 [1] was less than 5.00; against Sphingosine kinase 1 [2] it was less than 5.30.
Taken in the same sequence, the figures for `OC[C@H]1CCCN1CCc1ccc(Nc2nc(-c3ccc4ccccc4c3)cs2)cc1` were 5.57 and 6.24.
As to `OCC1COCCN1CCc1ccc(Nc2nc(-c3ccc4ccccc4c3)cs2)cc1` (configuration not stated), the pIC50 against Sphingosine kinase 2 [1] was less than 5.00.
At Sphingosine kinase 2 [1], `OC[C@H]1C[C@@H](O)CCN1CCc1ccc(Nc2nc(-c3cccc(F)c3)cs2)cc1` had a negative logarithm of the IC50 (pIC50) of less than 5.30.
As for `OC[C@H]1C[C@H](O)CN1CCc1ccc(Nc2nc(-c3ccc(Cl)c(Cl)c3)cs2)cc1`, the Vd in data set [9] was greater than 100 L/kg. In data set [11], this compound displayed a clearance greater than 233 mL/min/kg. This compound also gave a pIC50 on Sphingosine kinase 2 [1] of 6.60.
The compound `OC[C@H]1CCCCN1CCc1ccc(Nc2nc(-c3ccc(Cl)cc3)cs2)cc1` gave a pIC50 at Sphingosine kinase 1 [2] of 7.10.
The compound `OC[C@H]1C[C@@H](O)CCN1CCc1ccc(Nc2nc(-c3ccccc3)cs2)cc1` gave a pEC50 on Sphingosine kinase 1 [12] of 6.51. On Sphingosine kinase 1 [2], this compound had a pIC50 of 7.15.
At Sphingosine kinase 1 [2], `Cc1ccc(-c2csc(Nc3ccc(CCN4CC[C@H](O)C[C@@H]4CO)cc3)n2)cc1` had a pIC50 of 8.15.
In the case of `OCC1CCCCCN1CCc1ccc(Nc2nc(-c3ccc4ccccc4c3)cs2)cc1` (configuration not stated), the pIC50 against Sphingosine kinase 2 [1] was less than 5.00.
Regarding `OC[C@@H]1CCCN1CCc1ccc(Nc2nc(-c3ccc4ccccc4c3)cs2)cc1`, the results for the pIC50 at Sphingosine kinase 2 [1] and at Sphingosine kinase 1 [2] were 5.60 and 6.00, respectively.
The compound `CCCCc1csc(Nc2ccc(CCN3CC[C@H](O)C[C@@H]3CO)cc2)n1` showed a pEC50 at Sphingosine kinase 1 [12] of 6.43. Moreover, the pIC50 on Sphingosine kinase 2 [1] is less than 5.30; against Sphingosine kinase 1 [2] it was 7.15.
As for `OC[C@@H]1CCCCN1CCc1ccc(Nc2nc(-c3ccc4ccccc4c3)cs2)cc1`, the pIC50 at Sphingosine kinase 1 [2] was 5.96.
